≈ marks a conversion by molar mass, not a printed value. Where two headings read alike, the source gives them in different places.
System: A. fum.
Assay: In vitro antifungal MIC, NCCLS M38P broth method in RPMI 1640/MOPS pH 7
Assay type: cell-based, Aspergillus fumigatus
Conditions: for MIC: Aspergillus fumigatus
Text: The in vitro evaluation of the antifungal activity of the compound of this invention (as shown in Table I) can be performed by determining the minimum inhibitory concentration (MIC) which is the concentration of the test compound in Rosewell Park Memorial Institute (RPMI) 1640 liquid medium buffered with 3-(Morpholino)propane sulfonic acid (MOPS) to pH 7, at which there is significant inhibition of the particular fungi. In practice the National Committee for Clinical Laboratory Standard (NCCLS) M27A document for Candida and Cryptococcus and M38P for Aspergillus was used to determine the MIC and readings recorded only when the Quality Control results fell into the acceptable range. After MIC results had been recorded, 100 μL from each of the well showing no growth was spread over Sabouraud Dextrose Agar (SDA) to determine the minimum fungicidal concentration (MFC).

[1] = A. fumigatus strain 1008, RPMI 1640, MOPS pH 7, read-out: MIC (A. fum.) 1008
[2] = A. fumigatus strain Si-l, RPMI 1640, MOPS pH 7, read-out: MIC (A. fum.) Si-l
[3] = A. fumigatus strain 1008, RPMI 1640, MOPS pH 7
[4] = A. fumigatus strain Si-l, RPMI 1640, MOPS pH 7
[5] = pH 7, read-out: MIC (A. fum.) 1008
[6] = pH 7, read-out: MIC (A. fum.) Si-l

Compound	MIC [1]	MIC [2]	MIC (A. fum.) 1008 [3]	MIC (A. fum.) Si-l [4]	other results
C[C@@H](N(NC(=O)OC(C)(C)C)C(=S)Nc1ccc(F)cc1F)[C@](O)(Cn1cncn1)c1ccc(F)cc1F [Compound No. 2, 1-t-Butoxycarbonyl-2-[(1R,2R)-2-(2,4-difluorophenyl)-2-hydroxy-1-methyl-3-(1H-1,2,4-triazol-1-yl)propyl]-4-[2,4-difluorophenyl]thiosemicarbazide]	> 16 µg/mL	> 16 µg/mL	–	–	–
1-t-Butoxycarbonyl-2-[(1R,2R)-2-(2,4-difluorophenyl)-2-hydroxy-1-methyl-3-(1H-1,2,4-triazol-1-yl)propyl]-4-[4-[4-chlorophenyl]piperizin-1-yl]phenyl]thiosemicarbazide [Compound No. 12]	–	–	0.25 µg/mL	0.25 µg/mL	–
C[C@@H](N(NC(=O)OC(C)(C)C)C(=O)Nc1ccc(Cl)cc1)[C@](O)(Cn1cncn1)c1ccc(F)cc1F [Compound No. 25, 1-t-Butoxycarbonyl-2-[(1R,2R)-2-(2,4-difluorophenyl)-2-hydroxy-1-methyl-3-(1H-1,2,4-triazol-1-yl)propyl]-4-[4-chlorophenyl]semicarbazide]	–	–	–	–	MIC [5]: > 16 µg/mL; MIC [6]: > 16 µg/mL
COc1ccc(NC(=S)N(N)[C@H](C)[C@](O)(Cn2cncn2)c2ccc(F)cc2F)c(OC)c1 [Compound No. 32, 2-[(1R,2R)-2-(2,4-difluorophenyl)-2-hydroxy-1-methyl-3-(1H-1,2,4-triazol-1-yl)propyl]-4-[2,4-dimethoxyphenyl]thiosemicarbazide]	> 16 µg/mL	> 16 µg/mL	–	–	–
COC(=O)C(CC(C)C)n1cnn([C@H](C)[C@](O)(Cn2cncn2)c2ccc(F)cc2F)c1=S (stereo partly drawn) [Compound No. 51, Methyl-2-isobutyl-2-[[(1R,2R)-2-(2,4-difluorophenyl)-2-hydroxy-1-methyl-3-(1H-1,2,4-triaolyl)propyl]-(2H,4H)-1,2,4-triazol-3-thion-4-yl]acetate]	–	–	>16 µg/mL	<16 µg/mL	–
C[C@@H](n1ncn(-c2ccc(OC(F)(F)F)cc2)c1=S)[C@](O)(Cn1cncn1)c1ccc(F)cc1F [Compound No. 46, 2-[(1R,2R)-2-(2,4-Difluorophenyl)-2-hydroxy-1-methyl-3-(1H-1,2,4-triazol-1-yl)propyl]-4-[4-trifluoromethoxyphenyl]-(2H,4H)-1,2,4-triazol-3-thione]	2 µg/mL (≈ 3.9 µM)	0.5 µg/mL (≈ 0.976 µM)	–	–	–
C[C@@H](N(NC(=O)OC(C)(C)C)C(=S)Nc1ccc(OC(F)(F)F)cc1)[C@](O)(Cn1cncn1)c1ccc(F)cc1F [Compound No. 6, 1-t-Butoxycarbonyl-2-[(1R,2R)-2-(2,4-difluorophenyl)-2-hydroxy-1-methyl-3-(1H-1,2,4-triazol-1-yl)propyl]-4-[4-trifluoromethoxyphenyl]thiosemicarbazide]	8 µg/mL (≈ 13.3 µM)	8 µg/mL (≈ 13.3 µM)	–	–	–
C[C@@H](N(NC(=O)OC(C)(C)C)C(=S)Nc1ccc(F)cc1)[C@](O)(Cn1cncn1)c1ccc(F)cc1F [Compound No. 1]	> 16 µg/mL	> 16 µg/mL	–	–	–
C[C@@H](N(N)C(=S)NCc1cccs1)[C@](O)(Cn1cncn1)c1ccc(F)cc1F [Compound No. 36, 2-[(1R,2R)-2-(2,4-difluorophenyl)-2-hydroxy-1-methyl-3-(1H-1,2,4-triazol-1-yl)propyl]-4-[2-thiophenmethyl]thiosemicarbazide]	–	–	4 µg/mL (≈ 9.12 µM)	2 µg/mL (≈ 4.56 µM)	–
COc1ccc(NC(=O)N(NC(=O)OC(C)(C)C)[C@H](C)[C@](O)(Cn2cncn2)c2ccc(F)cc2F)c(OC)c1 [Compound No. 27, 1-t-Butoxycarbonyl-2-[(1R,2R)-2-(2,4-difluorophenyl)-2-hydroxy-1-methyl-3-(1H-1,2,4-triazol-1-yl)propyl]-4-[2,4-dimethoxyphenyl]semicarbazide]	> 16 µg/mL	> 16 µg/mL	–	–	–
C[C@@H](n1ncn(-c2ccc([N+](=O)[O-])cc2)c1=S)[C@](O)(Cn1cncn1)c1ccc(F)cc1F [Compound No. 43, 2-[(1R,2R)-2-(2,4-difluorophenyl)-2-hydroxy-1-methyl-3-(1,2,4-triazol-1-yl)propyl]-4-[4-nitrophenyl]-(2H,4H)-1,2,4-triazol-3-thione]	–	–	–	–	MIC [5]: 4 µg/mL (≈ 8.45 µM); MIC [6]: 2 µg/mL (≈ 4.22 µM)
C[C@@H](N(N)C(=S)Nc1cnc2ccccc2c1)[C@](O)(Cn1cncn1)c1ccc(F)cc1F [Compound No. 39, 2-[(1R,2R)-2-(2,4-Difluorophenyl)-2-hydroxy-1-methyl-3-(1H-1,2,4-triazol-1-yl)propyl]-4-[quinolin-3-yl]thiosemicarbazide]	–	–	–	–	MIC [5]: 16 µg/mL (≈ 34.1 µM); MIC [6]: 4 µg/mL (≈ 8.52 µM)
C[C@@H](n1ncn(Cc2ccco2)c1=S)[C@](O)(Cn1cncn1)c1ccc(F)cc1F [Compound No. 53, 2-[(1R,2R)-2-(2,4-Difluorophenyl)-2-hydroxy-1-methyl-3-(1H-1,2,4-triazol-1-yl)propyl]-4-[2-furanmethyl]-(2H,4H)-1,2,4-triazol-3-thione]	–	–	8 µg/mL (≈ 18.5 µM)	4 µg/mL (≈ 9.25 µM)	–
C[C@@H](N(N)C(=S)Nc1ccc(Cl)cn1)[C@](O)(Cn1cncn1)c1ccc(F)cc1F [Compound No. 37, 2-[(1R,2R)-2-(2,4-Difluorophenyl)-2-hydroxy-1-methyl-3-(1H-1,2,4-triazol-1-yl)propyl]-4-[3-chloropyridin-6-yl]thiosemicarbazide]	0.5 µg/mL (≈ 1.1 µM)	1 µg/mL (≈ 2.2 µM)	–	–	–
C[C@@H](n1ncn(-c2ccc(C(F)(F)F)cc2)c1=S)[C@](O)(Cn1cncn1)c1ccc(F)cc1F [Compound No. 45, 2-[(1R,2R)-2-(2,4-difluorophenyl)-2-hydroxy-1-methyl-3-(1,2,4-triazol-1-yl)propyl]-4-[4-trifluoromethylphenyl]-(2H,4H)-1,2,4-triazol-3-thione]	1 µg/mL (≈ 2.01 µM)	0.5 µg/mL (≈ 1.01 µM)	–	–	–
C[C@@H](N(N)C(=S)NCc1ccco1)[C@](O)(Cn1cncn1)c1ccc(F)cc1F [Compound No. 35, 2-[(1R,2R)-2-(2,4-difluorophenyl)-2-hydroxy-1-methyl-3-(1H-1,2,4-triazol-1-yl)propyl]-4-[2-furanmethyl]thiosemicarbazide]	–	–	4 µg/mL (≈ 9.47 µM)	4 µg/mL (≈ 9.47 µM)	–
C[C@@H](N(NC(=O)OC(C)(C)C)C(=S)Nc1ccc(-n2ncnn2)cc1)[C@](O)(Cn1cncn1)c1ccc(F)cc1F [Compound No. 10, 1-t-Butoxycarbonyl-2-[(1R,2R)-2-(2,4-difluorophenyl)-2-hydroxy-1-methyl-3-(1H-1,2,4-triazol-1-yl)propyl]-4-[4-(1,2,3,4-tetrazol-2-yl)phenyl]thiosemicarbazide]	> 16 µg/mL	> 16 µg/mL	–	–	–
C[C@@H](N(N)C(=S)Nc1ccccc1)[C@](O)(Cn1cncn1)c1ccc(F)cc1F [Compound No. 29, 2-[(1R,2R)-2-(2,4-difluorophenyl)-2-hydroxy-1-methyl-3-(1H-1,2,4-triazol-1-yl)propyl]-4-phenyl thiosemicarbazide]	> 16 µg/mL	> 16 µg/mL	–	–	–
CCCCCCCCNC(=S)N(NC(=O)OC(C)(C)C)[C@H](C)[C@](O)(Cn1cncn1)c1ccc(F)cc1F [Compound No. 15]	–	–	>16 µg/mL	>16 µg/mL	–
C[C@@H](N(N)C(=S)Nc1ccc(C(F)(F)F)cc1)[C@](O)(Cn1cncn1)c1ccc(F)cc1F [Compound No. 33, 2-[(1R,2R)-2-(2,4-difluorophenyl)-2-hydroxy-1-methyl-3-(1H-1,2,4-triazol-1-yl)propyl]-4-[4-trifluoromethylphenyl]thiosemicarbazide]	4 µg/mL (≈ 8.22 µM)	2 µg/mL (≈ 4.11 µM)	–	–	–
